The source of these data is the Deep4Chem optical property database.

The nature of this data set: photoluminescence quantum yield (fraction); solvent given as SMILES.

Structures are written as SMILES.

As for `O=S(=O)(/N=c1\oc2cccc3c4c(-c5ccccc5)oc5cccc(c(c1-c1ccccc1)c23)c54)C(F)(F)F`, the photoluminescence quantum yield by setting is: (in CCCCCC) 0.7; (in CO) 0.78; (in CS(C)=O) 0.6; (in ClC(Cl)Cl) 0.92; (in ClCCl) 0.94; (in O) 0.05.
Consider `F[B-]1(F)n2c(cc3c2-c2ccccc2CC3)C(c2ccc(I)cc2)=C2C=C3CCc4ccccc4C3=[N+]21`, for which the photoluminescence quantum yield (in ClC(Cl)Cl) was determined as 0.38.
`CC[N+]1(CC)CN2C(=N1)C(C(=O)O)=Cc1cc(OC)ccc12`: the photoluminescence quantum yield (in O) is 0.509.
Consider `CCN(CC)c1ccc2c(-c3ccc(S(=O)(=O)O)cc3S(=O)(=O)[O-])c3ccc(=[N+](CC)CC)cc-3oc2c1`, for which the photoluminescence quantum yield is 0.58 (in CC#N), 0.66 (in CCO), 0.54 (in CN(C)C=O) and 0.36 (in O).
`COC(=O)c1ccc(C2=C3C=CC(C)=[N+]3[B-](F)(F)n3c(C)ccc32)cc1`: the photoluminescence quantum yield (in C1CCCCC1) is 0.073; the photoluminescence quantum yield (in C1CCOC1) stood at 0.056; the photoluminescence quantum yield (in CC#N) was 0.039; the photoluminescence quantum yield (in CCOC(C)=O) was 0.053; the photoluminescence quantum yield (in CO) came to 0.032; the photoluminescence quantum yield (in Cc1ccccc1) was found to be 0.12. In addition, the photoluminescence quantum yield (in ClC(Cl)Cl) amounted to 0.095.
As to `CCOC(=O)c1ccc(C2=Cc3ccccc3P2(=O)c2ccccc2)cc1` (stereo unspecified), where the note is “in ClCCl”, the photoluminescence quantum yield amounted to 0.82.
On the same count and under the same terms, then `Cc1ccc(-c2c3nc(c(-c4ccc(C)cc4)c4ccc([nH]4)c(-c4ccc(OC(=O)C(C)c5ccccc5)cc4)c4nc(c(-c5ccc(C)cc5)c5ccc2[nH]5)C=C4)C=C3)cc1` (stereo unspecified), with 0.123.
`CC(C)(C)c1ccc2c(c1)c1cc(C(C)(C)C)ccc1n2-c1ccc2oc3nc4oc5ccc(C(F)(F)F)cc5c4cc3c2c1`: the photoluminescence quantum yield runs as follows: (in C1CCCCC1) 0.113; (in C1CCOC1) 0.073; (in CC#N) 0.032; (in CS(C)=O) 0.124; (in Cc1ccccc1) 0.094; (in ClC(Cl)Cl) 0.058.
As to `COc1c2ccccc2c(OC)c2c(C#CC(C)(C)C)c3cc4sccc4cc3c(C#CC(C)(C)C)c12`, the photoluminescence quantum yield is, setting by setting: (in C1CCOC1) 0.1; (in Cc1ccccc1) 0.14; (in ClCCl) 0.08.
For the setting “in CCCCCC”, `CC(C)[Si](C#Cc1c2ccccc2c(C#C[Si](C(C)C)(C(C)C)C(C)C)c2nc3c(nc12)C1c2ccccc2C3c2ccccc21)(C(C)C)C(C)C` displayed a photoluminescence quantum yield of 0.7.
`CCCCCOc1ccc2c(c1)c1ccc3cccc4c5cccc6oc(=O)c2c(c65)c1c34`: the photoluminescence quantum yield (in C1CCOC1) stood at 0.529.
For `O=S1(=O)c2ccccc2C2(c3cc(-c4ccc(N(c5ccccc5)c5ccccc5)cc4)ccc3-c3ccc(-c4ccc(N(c5ccccc5)c5ccccc5)cc4)cc32)c2ccccc21`, the photoluminescence quantum yield worked out at 0.83 (in ClCCl) and 0.9 (in c1cc(-n2c3ccccc3c3ccccc32)cc(-n2c3ccccc3c3ccccc32)c1).
With `Cc1ccc(C2=C3C=CC(C#Cc4ccccc4)=[N+]3[B-](F)(F)n3c(Cl)ccc32)cc1`, the photoluminescence quantum yield turned out to be 1 (in C1CCCCC1); 0.84 (in C1CCOC1); 0.97 (in C1COCCO1); 0.83 (in CCOC(C)=O); 0.98 (in CO); 0.91 (in Cc1ccccc1). Also, for the setting “in ClC(Cl)Cl”, the photoluminescence quantum yield was determined as 0.95.
In the case of `CCCCC(CC)CN1C(=O)c2cccc3c(C#Cc4ccc(N(c5ccccc5)c5ccc(C#Cc6ccc7c8c(cccc68)C(=O)N(CC(CC)CCCC)C7=O)cc5)cc4)ccc(c23)C1=O` (stereo unspecified), the photoluminescence quantum yield is 0.93 (in C1CCCCC1); 0.85 (in C1CCOC1); 0.012 (in CC#N); 0.94 (in Cc1ccccc1); 0.44 (in ClC(Cl)Cl).
Regarding `COC(=O)c1cc(=O)n(C)c2cc(-c3ccc(N4CCN(C)CC4)cc3)sc12`, the photoluminescence quantum yield by setting is: (in CC#N) 0.03; (in ClCCl) 0.99.
On to `CC1=C(c2cccs2)C2=Cc3c(-c4cccs4)c(C)c(C)n3[B-](F)(F)[N+]2=C1C`, for which the photoluminescence quantum yield (in CC#N) came to 0.52.
Take `CCOC(=O)c1cc(C)n2nc(-c3ccccc3)ccc12`: the photoluminescence quantum yield (in CCCCCC) worked out at 0.434.
In turn, `Cc1cc2[nH]c3ccccc3c2c2[nH]c3ccccc3c12` came in with a photoluminescence quantum yield (in ClCCl) of 0.223.
For `Cc1c(COC(=O)Cc2ccccc2)n2c(OCC(=O)Cc3ccccc3)c(C)c(=O)n2c1=O`, for the setting “in CCO”, the photoluminescence quantum yield came to 0.836.
`CCCN1c2ccccc2Sc2cc(/C=C\c3cc(=O)oc4cc(C)ccc34)ccc21` displayed a photoluminescence quantum yield (in ClC(Cl)Cl) of 0.27.
Turning to `Cc1cc(C)c(B(c2cc(-c3ccc(C(C)(C)C)cc3)sc2-c2sc(-c3ccc(C(C)(C)C)cc3)cc2P(=O)(c2ccccc2)c2ccccc2)c2c(C)cc(C)cc2C)c(C)c1`, the photoluminescence quantum yield (in CO) came out at 0.54.
Take `Cc1ccccc1-c1c2ccc(=[N+]3CCN(C(=O)OC(C)(C)C)CC3)cc-2oc2cc(N3CCN(C(=O)OC(C)(C)C)CC3)ccc12`: the photoluminescence quantum yield by setting is: (in CCO) 0.19; (in ClCCl) 0.47.
`Cc1nc2c(ccc3ccc(O)cc32)oc1=O` gave a photoluminescence quantum yield (in c1ccccc1) of 0.358.
In the case of `O=C1c2ccc3c4ccc5c6c(ccc(c7ccc(c2c37)C(=O)N1c1ccncc1)c64)C(=O)N(c1ccncc1)C5=O`, the photoluminescence quantum yield reads like this: (in C1CCOC1) 0.508; (in C1COCCO1) 0.847; (in CC(C)=O) 0.758; (in CC(C)O) 0.454; (in CCCCO) 0.46; (in CCO) 0.201. In addition, the photoluminescence quantum yield (in CCOC(C)=O) turned out to be 0.337; the photoluminescence quantum yield (in CN(C)C=O) was 0.438; the photoluminescence quantum yield (in CO) is 0.206; the photoluminescence quantum yield (in CS(C)=O) is 0.057; the photoluminescence quantum yield (in ClC(Cl)(Cl)Cl) was determined as 0.97; the photoluminescence quantum yield (in ClC(Cl)Cl) stood at 0.97.
For the compound `C[Si]1(C)O[Si](C)(C)c2cc3c(-c4ccc(F)cc4)c4ccccc4nc3cc21`, the photoluminescence quantum yield (in ClCCl) was determined as 0.39.
The same measure, in the same setting: in the case of `CCCCN(CCCC)c1ccc2c(c1)C#CC#Cc1cc(C(F)(F)F)ccc1C#Cc1cc(c3cc1C#Cc1ccc(C(F)(F)F)cc1C#CC#Cc1cc(N(CCCC)CCCC)ccc1C#C3)C#C2` it was 0.23.
As to `CC1=CC(c2ccc(N(C)C)cc2)=[N+]2C1=Nc1c(C)cc(-c3ccc(N(C)C)cc3)n1[B-]2(F)F`, the photoluminescence quantum yield (in C1CCOC1) is 0.13, the photoluminescence quantum yield (in CS(C)=O) was 0.01 and the photoluminescence quantum yield (in Cc1ccccc1) was 0.21.
Turning to `COC(=O)C12N=N[C@](C(=O)OC)(C3C4CCC(C4)C31)[C@@]1(C)C[C@@H]21` (stereo partly specified), where the note is “in CC#N”, the photoluminescence quantum yield is 0.043.
`COc1ccc(-c2cnc3nn4ccccc4c3n2)cc1` yielded a photoluminescence quantum yield (in C1CCOC1) of 0.83.
For the compound `CC1(C)c2ccccc2N(c2ccccc2)c2ccc(S(=O)(=O)c3ccc4c(c3)C(C)(C)c3ccccc3N4c3ccccc3)cc21`, the photoluminescence quantum yield (in O=P(c1ccccc1)(c1ccccc1)c1ccccc1Oc1ccccc1P(=O)(c1ccccc1)c1ccccc1) came out at 0.5.
The compound `C[C@]12SC(=O)C=C1c1nc(-c3ccccc3O)[nH]c1C1=CC(=O)S[C@@]12C` yielded a photoluminescence quantum yield (in CC#N) of 0.01.
Under “in ClCCl”, `CCCCCCCCCCCCN1C(=O)c2c(c3ccc4cc(-c5ccc(C)cc5)c(OC)cc4c3c3c2ccc2cc(-c4ccc(C)cc4)c(OC)cc23)C1=O` had a photoluminescence quantum yield of 0.151.
In the case of `COC(=O)[C@@]12N=N[C@@H](C3C[C@H]31)[C@@H]1C[C@@H]12` (stereo partly specified), the photoluminescence quantum yield (in CC#N) was 0.0066.
In turn, `CCOC(CN1C(=O)C2=C(c3cccs3)N(CC(OCC)OCC)C(=O)C2=C1c1cccs1)OCC` displayed a photoluminescence quantum yield (in ClC(Cl)Cl) of 0.41.
`COc1ccc(N2c3cc(OC)ccc3N=c3cc4c(cc32)=Nc2cc(C(C)(C)C)cc(C(C)(C)C)c2O4)cc1` gave a photoluminescence quantum yield (in CCCCCC) of 0.31.
For `CCn1c2c(-c3ccc(-c4cccs4)s3)cc(C(C)(C)C)cc2c2cc(C(C)(C)C)cc(-c3ccc(-c4cccs4)s3)c21`, the photoluminescence quantum yield (in ClCCl) turned out to be 0.106.
In turn, `C(#Cc1nc2ccccc2s1)c1ccc(N(c2ccccc2)c2ccccc2)cc1` gave a photoluminescence quantum yield (in Cc1ccccc1) of 0.62.
For `CCCOc1ccc(/C=C/C=C/C=C/c2ccc([N+](=O)[O-])cc2)cc1`, the photoluminescence quantum yield reads like this: (in CC1CCCCC1) 0.25; (in CC#N) 0.011; (in Cc1ccccc1) 0.54; (in ClCCl) 0.06.
On to `CCCCCCCCC1(CCCCCCCC)c2cc3c(cc2-c2sc(-c4ccc(/C=C5\SC(SCC)=NC5=O)c5nsnc45)cc21)C(CCCCCCCC)(CCCCCCCC)c1cc(-c2ccc(/C=C4\SC(SCC)=NC4=O)c4nsnc24)sc1-3`, for which the photoluminescence quantum yield (in C1CCOC1) amounted to 0.053 and the photoluminescence quantum yield (in ClC(Cl)Cl) came to 0.059.
For the compound `Cc1ccccc1/C(C#N)=C/c1ccc(N(C)C)cc1`, the photoluminescence quantum yield runs as follows: (in C1CCOC1) 0.011; (in C1COCCO1) 0.01; (in CC#N) 0.014; (in CCCCCC) 0.012; (in CCCCCCC) 0.008; (in CCCCCO) 0.01. For the same compound, the photoluminescence quantum yield was 0.006 (in CCCCO); 0.008 (in CCCO); 0.006 (in CCO); 0.007 (in CCOC(C)=O); 0.015 (in CN(C)C=O); 0.005 (in CO). The photoluminescence quantum yield was found to be 0.011 (in CS(C)=O), 0.021 (in Cc1ccccc1) and 0.009 (in ClC(Cl)Cl).
`C(/C=C/c1cc2c3c(c1)CCCN3CCC2)=C\c1ccncc1` gave a photoluminescence quantum yield (in C1COCCO1) of 0.031, a photoluminescence quantum yield (in CC#N) of 0.034, a photoluminescence quantum yield (in CCCCCCC) of 0.033 and a photoluminescence quantum yield (in CO) of 0.016.
`C[Si](C)(C)C#CC#Cc1ccc2c3cccc4cccc(c5cccc1c52)c43`: the photoluminescence quantum yield (in C1CCCCC1) came to 0.51.
`CCCCCCN1C(=O)c2cccc3c(-c4ccc(-c5cc(-c6ccc(OC)cc6)n(-c6ccccc6)n5)s4)ccc(c23)C1=O`: the photoluminescence quantum yield (in ClCCl) came to 0.38.
